Values of other authors in patent publication US4749649A, “Microbial Δ1-dehydrogenation process using a scavenger of toxic oxygen” (The Upjohn Company, priority 1983, dated 1988).

What was measured:
[1] = system: steroid-1-dehydrogenase; conditions: Pseudomonas testosteroni; potential toxicity by superoxide and peroxide formation
[2] = compared with hydrocortisone and cortisone
[3] = compared with hydrocortisone and cortisone; remark: listed apart in the source

SMILES	1-dehydrogenase activity in the presence of PMS [1]	potency [2]	drug-induced salt retention [3]
C[n+]1c2ccccc2nc2ccccc21 [PMS, phenazinemethosulfate]	essentially unaffected	–	–
C[C@]12C=CC(=O)C=C1CC[C@@H]1[C@@H]2[C@@H](O)C[C@@]2(C)[C@H]1CC[C@]2(O)C(=O)CO [prednisolone]	–	enhanced potency	less drug-induced salt retention
C[C@]12C=CC(=O)C=C1CC[C@@H]1[C@@H]2C(=O)C[C@@]2(C)[C@H]1CC[C@]2(O)C(=O)CO [prednisone]	–	–	less drug-induced salt retention
